Experimental data taken from patent US10294202B2, “Pyrrolidinones as herbicides” (FMC Corporation, priority 2013, dated 2019).

Assays:
oat, wild = test: Test D pre-/postemergence herbicide test; format: in vivo, Avena fatua; details: for Plant response rating: Postemergence, Oat, Wild, scale 0 to 100; for Plant response rating, Oat, Wild: Preemergence, scale 0 to 100 (0 no effect, 100 complete control)
Description: (§1) Seeds of plant species selected from bluegrass (annual bluegrass, Poa annua), blackgrass (Alopecurus myosuroides), canarygrass (littleseed canarygrass, Phalaris minor), chickweed (common chickweed, Stellaria media), galium (catchweed bedstraw, Galium aparine), bromegrass, downy (downy bromegrass, Bromus tectorum), field poppy (Papaver rhoeas), field violet (Viola arvensis), foxtail, green (green foxtail, Setaria viridis), deadnettle (henbit deadnettle, Lamium amplexicaule), ryegrass, Italian (Italian ryegrass, Lolium multiflorum), kochia (Kochia scoparia), lambsquarters (Chenopodium album), oilseed rape (Brassica napus), pigweed (Amaranthus retroflexus), chamomile (scentless chamomile, Matricaria inodora), Russian thistle (Salsola kali), speedwell (bird's-eye speedwell, Veronica persica), barley, spring (spring barley, Hordeum vulgare), wheat, spring (spring wheat, Triticum aestivum), buckwheat, wild (wild buckwheat, Polygonum convolvulus), mustard, wild (wild mustard, Sinapis arvensis), oat, wild (wild oat, Avena fatua), radish, wild (wild radish, Raphanus raphanistrum), […]), barley, winter (winter barley, Hordeum vulgare), and wheat, winter (winter wheat, Triticum aestivum) were planted into a silt loam soil and treated preemergence with test chemicals formulated in a non-phytotoxic solvent mixture which included a surfactant. At the same time, these species were planted in pots containing Redi-Earth® planting medium (Scotts Company, 14111 Scottslawn Road, Marysville, Ohio 43041) comprising spaghnum peat moss, vermiculite, wetting agent and starter nutrients and treated with postemergence applications of the test chemicals formulated in the same manner. Plants ranged in height from 2 to 18 cm (1- to 4-leaf stage). Treated plants and controls were maintained in a controlled growth environment for 7 to 21 days after which time all species were compared to controls and visually evaluated. Plant response ratings, summarized in Table D, are based on a scale of 0 to 100 where 0 is no effect and 100 is complete control. A dash (-) response means no test result.

oilseed rape = test: Test D pre-/postemergence herbicide test; format: in vivo, Brassica napus; details: for Plant response rating: Postemergence, Oilseed Rape, scale 0 to 100; for Plant response rating, Oilseed Rape: Preemergence, scale 0 to 100 (0 no effect, 100 complete control)
Description: as §1

barnyardgrass = test: Test F flood (paddy) test; format: in vivo, Echinochloa crus-galli; details: 21 d, scale 0-100
Summary of the method: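 Pots of sterilized Tama silt loam (35:50:15 sand:silt:clay, 2.6% organic matter) were sown so crop and weeds reached the 2.0–2.5-leaf stage; greenhouse 30/27 °C, 16-h photoperiod. Pots flooded to 3 cm, compound applied into paddy water, depth maintained. Visual rating vs untreated controls after 21 d, 0–100 scale.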

SMILES	Plant response rating (oat, wild; 16 g ai/ha)	Plant response rating (oat, wild; 31 g ai/ha)	Plant response rating (oat, wild; 62 g ai/ha)	Plant response rating (oat, wild; 125 g ai/ha)	Plant response rating (oat, wild; 250 g ai/ha)	Plant response rating, Oat, Wild (oat, wild; 62 g ai/ha)	Plant response rating, Oat, Wild (oat, wild; 125 g ai/ha)	Plant response rating, Oat, Wild (oat, wild; 16 g ai/ha)	Plant response rating, Oat, Wild (oat, wild; 31 g ai/ha)	Plant response rating, Oat, Wild (oat, wild; 250 g ai/ha)	Plant response rating (oilseed rape; 16 g ai/ha)	Plant response rating (oilseed rape; 31 g ai/ha)	Plant response rating (oilseed rape; 62 g ai/ha)	Plant response rating (oilseed rape; 125 g ai/ha)	Plant response rating (oilseed rape; 250 g ai/ha)	Plant response rating, Oilseed Rape (oilseed rape; 62 g ai/ha)	Plant response rating, Oilseed Rape (oilseed rape; 125 g ai/ha)	Plant response rating, Oilseed Rape (oilseed rape; 16 g ai/ha)	Plant response rating, Oilseed Rape (oilseed rape; 31 g ai/ha)	Plant response rating, Oilseed Rape (oilseed rape; 250 g ai/ha)	further results
O=C1NCC(c2ccc(F)c(F)c2)C1C(=O)Nc1ccccc1C(F)(F)F (racemic) [Compound 6]	0	0	0	0	5	0	0	0	0	0	10	10	10	15	20	0	10	0	0	20	–
O=C1NCC(c2ccc(F)c(C(F)(F)F)c2)C1C(=O)Nc1cccc(F)c1F (racemic) [Compound 77]	–	–	–	–	–	15	20	–	10	45	–	–	–	–	–	5	5	–	5	5	–
O=C1NCC(c2ccc(F)c(F)c2)C1C(=O)Nc1cccc(F)c1F (racemic) [Compound 101]	–	–	–	–	–	–	–	–	–	–	–	–	–	–	–	–	–	–	–	–	Plant response rating, Barnyardgrass (barnyardgrass; 64 g ai/ha): 60; Plant response rating, Barnyardgrass (barnyardgrass; 125 g ai/ha): 85; Plant response rating, Barnyardgrass (barnyardgrass; 250 g ai/ha): 85; Plant response rating, Barnyardgrass (barnyardgrass; 500 g ai/ha): 90
O=C1NCC(c2cccc(C(F)F)c2)C1C(=O)Nc1ccccc1F (racemic) [Compound 210]	–	–	–	–	–	–	–	–	–	–	–	–	–	–	–	–	–	–	–	–	Plant response rating, Barnyardgrass (barnyardgrass; 125 g ai/ha): 75; Plant response rating, Barnyardgrass (barnyardgrass; 250 g ai/ha): 100; Plant response rating, Barnyardgrass (barnyardgrass; 500 g ai/ha): 100
O=C1NCC(c2cc(F)c(F)cc2F)C1C(=O)Nc1cccc(F)c1F (stereo not drawn) [Compound 50]	0	0	0	0	–	0	0	0	0	–	5	5	5	5	–	0	0	0	0	–	–
O=C1NCC(c2ccc(Cl)c(F)c2)C1C(=O)Nc1cccc(F)c1F (stereo not drawn) [Compound 52]	0	0	0	0	0	0	0	0	0	0	0	0	0	10	25	0	10	0	0	10	–
O=C1NCC(c2ccc(C(F)(F)F)cc2)C1C(=O)Nc1ccccc1F (stereo not drawn) [Compound 231]	–	5	10	10	10	20	25	–	20	30	–	15	10	20	40	0	45	–	0	55	–
